Counter-ions that a name gives are not always drawn.
Tests used:
[1] = tested on: LPS-stimulated TNFalpha production in human whole blood; experiment: LPS-stimulated cytokine production in human whole blood; assay type: cell-based; conditions: LPS 50 ng/ml final, 4 hour incubation, read-out: IC50, LPS-stimulated TNF-alpha production in human whole blood
Method: LPS-Stimulated Cytokine Production in Human Whole Blood
Assay: Test compound concentrations were prepared at 10× concentrations and LPS prepared at 1 ug/ml (final conc. of 50 ng/ml LPS) and added in 50 uL volumes to 1.5 mL eppendorf tubes. Heparinized human whole blood was obtained from healthy volunteers and was dispensed into eppendorf tubes or multiwell plates containing compounds and LPS in 0.2-0.4 mL volumes and the tubes incubated at 37 C. In some studies, compound was incubated with blood for up to 30 min prior to addition of LPS. Following a 4 hour incubation, the tubes or plates were centrifuged to remove cells and plasma was withdrawn and frozen at −80 C.
Cytokine measurement: IL-Ibeta and/or TNFalpha were quantified using a standardized ELISA, or similar technology.

[2] = target: T1, Recombinant human p38α (Homo sapiens, UniProt Q16539); experiment: Time-resolved fluorescence resonance energy transfer (TR-FRET) kinase assay (standard and low volume); assay type: biochemical; conditions: for 97(b) and 115 a broad range over multiple runs, lower end less than 4.6; read-out: pIC50, TR-FRET p38α kinase assay (converted)
T1 construct: His; made in house
Method: Time-Resolved Fluorescence Resonance Energy Transfer Linase Standard Assay
(§1) Recombinant human p38α was expressed as a His-tagged protein. To activate this protein, 3 μM unactivated p38α was incubated in 200 mM Hepes pH 7.4, 625 mM NaCl, 1 mM DTT with 27 nM active MKK6 (Upstate), 1 mM ATP and 10 mM MgCl2 The activity of the MKK6-activated p38α was assessed using a time-resolved fluorescence resonance energy transfer (TR-FRET) assay.
Biotinylated-GST-ATF2 (residues 19-96, 400 nM final), ATP ([…]) and MgCl2 (5 mM final) in assay buffer (40 mM HEPES pH 7.4, 1 mM DTT) were added to wells containing 1 ul of various concentrations of compound or DMSO vehicle (3% final) in NUNC 384 well black plate. The reaction was initiated by the addition of MKK6-activated p38 (100 pM final) to give a total volume of 30 ul. The reaction was incubated for 120 minutes at room temperature, then terminated by the addition of 15 μl of 100 mM EDTA pH 7.4. Detection reagent (15 μl) in buffer (100 mM HEPES pH 7.4, 150 mM NaCl, 0.1% w/v BSA, 1 mM DTT) containing antiphosphothreonine-ATF2-71 polyclonal antibody (Cell Signalling Technology, Beverly Mass., USA) labelled with W-1024 europium chelate (Wallac O Y, Turku, Finland), and APC-labelled streptavidin (Prozyme, San Leandro, Calif., USA) was added and the reaction was further incubated for 60 minutes at room temperature. The degree of phosphorylation of GST-ATF2 was measured using a Packard Discovery plate reader (Perkin-Elmer Life Sciences, Pangbourne, UK) as a ratio of specific 665 nm energy transfer signal to reference europium 620 nm signal.
Time-Resolved Fluorescence Resonance Energy Transfer Kinase Low Volume Assay
as §1, with “pH7.4,” for “pH 7.4,”
Biotinylated-GST-ATF2 (residues 19-96, 400 nM final), ATP (125 μM final) and MgCl2 (5 mM final) in assay buffer (40 mM HEPES pH 7.4, 1 mM DTT) were added to wells containing 0.1 μl of various concentrations of compound or DMSO vehicle (1.7% final) in Greiner low volume 384 well black plate. The reaction was initiated by the addition of MKK6-activated p38α (100 pM final) to give a total volume of 6 μl. […] The degree of phosphorylation of GST-ATF2 was measured using a BMG Rubystar plate reader (BMG, UK) as a ratio of specific 665 nm energy transfer signal to reference europium 620 nm signal.
It is noted that there are two assay formats shown above for the Time-resolved fluorescence resonance energy transfer kinase assay. […]

T1 sequence (Q16539 whole entry): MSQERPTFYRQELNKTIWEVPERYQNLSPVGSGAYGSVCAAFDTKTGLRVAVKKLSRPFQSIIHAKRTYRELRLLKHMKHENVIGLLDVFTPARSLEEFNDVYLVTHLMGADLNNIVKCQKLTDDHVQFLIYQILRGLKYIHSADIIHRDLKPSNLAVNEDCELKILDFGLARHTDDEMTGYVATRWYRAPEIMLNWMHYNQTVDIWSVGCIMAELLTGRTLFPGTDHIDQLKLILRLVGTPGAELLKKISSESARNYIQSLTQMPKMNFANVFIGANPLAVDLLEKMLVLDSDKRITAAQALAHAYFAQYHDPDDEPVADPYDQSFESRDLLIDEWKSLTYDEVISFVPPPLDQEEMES

In the case of `Cc1ccc(C(=O)O)cc1-c1nc(-n2ccnc2CN)nc2c1ccc(=O)n2-c1c(F)cccc1F` [Example 97(b), 3-[2-[2-(aminomethyl)-1H-imidazol-1-yl]-8-(2,6-difluorophenyl)-7-oxo-7,8-dihydropyrido[2,3-d]pyrimidin-4-yl]-4-methylbenzoic acid trifluoroacetate], the IC50 [1] is reported as > 1000 nM and the IC50 [2] is reported as ≥ 39.8 nM.
